Among the data in US20150119378A1, “AZETIDINYLOXY-, PYRROLIDINYLOXY-, AND PIPERIDINYLOXY-SUBSTITUTED METANICOTINES AS NEURONAL NICOTINIC ACETYLCHOLINE RECEPTOR LIGANDS” (priority 2013, published 2015) are Ki values, retold here.

In experiment [1] the target is T1, Human α4β2 (Homo sapiens, UniProt P17787+P43681).
T1 construct: expressed in transfected cells; obtained from Dr. Ron Lukas, Barrow Neurological Institute
Kind of experiment: Competition binding to receptors in membrane preparations, human α4β2 ([3H]-nicotine). The following applies: read-out: Human α4β2 Ki. As for the experimental part: (§1) SH-EP1/human α4β2 (Eaton et al., 2003), SH-EP1/human α4β4 (Gentry et al., 2003), SH-EP1/α6β3β4α5 (Grinevich et al., 2005), TE671/RD and SH-SY5Y cell lines (obtained from Dr. Ron Lukas, Barrow Neurological Institute) were maintained in proliferative growth phase in Dulbecco's modified Eagle's medium (Gibco/BRL) with 10% horse serum (Gibco BRL), 5% fetal bovine serum (HyClone, Logan Utah), 1 mM sodium pyruvate, 4 mM L-glutamine. For maintenance of stable transfectants, the α4β2 and α4β4 cell media was supplemented with 0.25 mg/mL zeocin and 0.13 mg/mL hygromycin B. Selection was maintained for the α6β3β4α5 cells with 0.25 mg/mL of zeocin, 0.13 mg/mL of hygromycin B, 0.4 mg/mL of geneticin, and 0.2 mg/mL of blasticidin. HEK/human α7/RIC3 cells (obtained from J. Lindstrom, U. Pennsylvania) were maintained in proliferative growth phase in Dulbecco's modified Eagle's medium (Gibco/BRL) with 10% fetal bovine serum (HyClone, Logan Utah), 1 mM sodium pyruvate, 4 mM L-glutamine, 0.4 mg/mL geneticin; 0.2 mg/ml hygromycin B.
(§2) Cells were harvested in ice-cold PBS, pH 7.4, then homogenized with a polytron (Brinkmann Instruments, Westbury, N.Y.). Homongenates were centrifuged at 40,000 g for 20 minutes (4° C.). The pellet was resuspended in PBS and protein concentration determined using the Pierce BCA Protein Assay kit (Pierce Biotechnology, Rockford, Ill.).
(§3) Binding to nicotinic receptors was assayed on membranes using standard methods adapted from published procedures (Lippiello and Fernandes, 1986; Davies et al., 1999). In brief, membranes were reconstituted from frozen stocks (approximately 0.2 mg protein) and incubated for 2 h on ice in […] assay buffer (PBS) in the presence of competitor compound (0.001 nM to […]) and radioligand. [^3H]-nicotine (L-(−)-[N-methyl-3H]-nicotine, 69.5 Ci/mmol, Perkin-Elmer Life Sciences) was used for human α4β2 binding studies. [^3H]-epibatidine (52 Ci/mmol, Perkin-Elmer Life Sciences) was used for binding studies at the other receptor subtypes. Incubation was terminated by rapid filtration on a multimanifold tissue harvester (Brandel, Gaithersburg, Md.) using GF/B filters presoaked in 0.33% polyethyleneimine (w/v) to reduce non-specific binding. Filters were washed 3 times and the radioactivity retained was determined by liquid scintillation counting.
(§4) Binding data were expressed as percent total control binding. Replicates for each point were averaged and plotted against the log of drug concentration. The IC50 (concentration of the compound that produces 50% inhibition of binding) was determined by least squares non-linear regression using GraphPad Prism software (GraphPAD, San Diego, Calif.). Ki was calculated using the Cheng-Prusoff equation (Cheng and Prusoff, 1973).

For experiment [2], the target named is T2, Human Ganglion (Homo sapiens, UniProt P30926+P32297).
T2 construct: endogenous in cells
Kind of experiment: Competition binding to receptors in membrane preparations, human ganglion subtype ([3H]-epibatidine). As for the experimental part: as §1, §2, §3, §4

In experiment [3] the target is Rat Ganglion (Rattus norvegicus, UniProt P04757+P12392). Kind of experiment: Competition binding to receptors in membrane preparations, rat ganglion subtype ([3H]-epibatidine). As to the method: as §3, §4
Experiment [4] deals with T3, Human α7 nAChR (Homo sapiens, UniProt P36544).
T3 construct: expressed in transfected cells; host or cells: HEK cells co-expressing RIC3 (from J. Lindstrom, U. Pennsylvania)
Kind of experiment: Competition binding to receptors in membrane preparations, human α7 ([3H]-epibatidine). As for the experimental part: as §1, §2, §3, §4

Like-named read-outs stand apart in the source and are kept apart here.

What is called Ki is a measure of affinity in units of concentration, obtained from inhibition or displacement.

`CN[C@@H](C)C/C=C/c1cncc(O[C@H]2CCN(C(C)=O)C2)c1`: in experiment [1], the inhibitory constant (Ki) was determined as 12 nM. On to `CN[C@@H](C)C/C=C/c1cncc(O[C@H]2CCN(C(=O)C3CCOCC3)C2)c1`, for which the Ki stood at 100 µM in experiment [2], 13 nM in experiment [1] and 51 µM in experiment [3]. In the case of `CN[C@@H](C)C/C=C/c1cncc(O[C@@H]2CCN(C(=O)C3CCOCC3)C2)c1`, the inhibitory constant (Ki) came to 44 µM in experiment [2] and 4.4 nM in experiment [1]. As for `CCC(=O)N1CC(Oc2cncc(/C=C/C[C@H](C)NC)c2)C1`, the Ki in experiment [1] turned out to be 2.2 nM. Same read-out and setting: then `CN[C@@H](C)C/C=C/c1cncc(OC2CN(C(=O)C3CCOCC3)C2)c1`, with 4.8 nM. `CN[C@@H](C)C/C=C/c1cncc(O[C@H]2CCN(C(=O)C3CC3)C2)c1`: the Ki in experiment [2] was determined as 20 µM; in experiment [1] it was 14 nM. In the same order, the values of `CN[C@@H](C)C/C=C/c1cncc(O[C@H]2CCN(C(=O)COC)C2)c1` are 21 µM and 4.4 nM. For `CN[C@@H](C)C/C=C/c1cncc(O[C@H]2CCN(C(=O)c3ccco3)C2)c1` the same measures were 72 µM and 1.2 nM. As for `CCCOC(=O)N1CC[C@H](Oc2cncc(/C=C/C[C@H](C)NC)c2)C1`, the inhibition constant Ki in experiment [2] (read-out: Human Ganglion Ki) worked out at 25 µM; in experiment [1], 7.7 nM. For `CN[C@@H](C)C/C=C/c1cncc(O[C@H]2CCN(C(=O)OCCOC)C2)c1` the same measures were 270 µM and 53 nM. On to `CCNC(=O)N1CC[C@H](Oc2cncc(/C=C/C[C@H](C)NC)c2)C1`, for which the Ki in experiment [2] turned out to be 250 µM; in experiment [1] it was 61 nM. In the same order, the values of `CN[C@@H](C)C/C=C/c1cncc(O[C@@H]2CCN(C(=O)C3CC3)C2)c1` are 83 µM and 5.1 nM. In the same order, the values of `CN[C@@H](C)C/C=C/c1cncc(O[C@@H]2CCN(C(=O)COC)C2)c1` are 55 µM and 9.1 nM.

For `CN[C@@H](C)C/C=C/c1cncc(O[C@@H]2CCN(C(=O)c3ccco3)C2)c1`, the Ki in experiment [2] turned out to be 50 µM; in experiment [1], 4.7 nM. With `CCCOC(=O)N1CC[C@@H](Oc2cncc(/C=C/C[C@H](C)NC)c2)C1`, the Ki in experiment [2] (read-out: Human Ganglion Ki) worked out at 37 µM; in experiment [1], 5.1 nM. For `CN[C@@H](C)C/C=C/c1cncc(O[C@@H]2CCN(C(=O)OCCOC)C2)c1` the same measures were 48 µM and 6.6 nM. `CCNC(=O)N1CC[C@@H](Oc2cncc(/C=C/C[C@H](C)NC)c2)C1`: the Ki in experiment [2] came out at 140 µM; in experiment [1], 9.9 nM. Turning to `CN[C@@H](C)C/C=C/c1cncc(OC2CN(C(=O)COC)C2)c1`, the values for the inhibition constant (Ki) in experiment [2] (read-out: Human Ganglion Ki) and in experiment [1] were 42 µM and 4.9 nM, respectively.

Regarding `CN[C@@H](C)C/C=C/c1cncc(OC2CN(C(=O)c3ccco3)C2)c1`, the Ki is 20 µM in experiment [2] (read-out: Human Ganglion Ki) and 2.8 nM in experiment [1]. On to `CCCOC(=O)N1CC(Oc2cncc(/C=C/C[C@H](C)NC)c2)C1`, for which the figures for the Ki in experiment [2] and in experiment [1] were 44 µM and 3.9 nM, respectively. In the same order, the values of `CN[C@@H](C)C/C=C/c1cncc(OC2CN(C(=O)OCCOC)C2)c1` are 69 µM and 9.6 nM. `CN[C@@H](C)C/C=C/c1cnc(Cl)c(O[C@H]2CCN(C(=O)c3ccc(F)cc3F)C2)c1`: the Ki in experiment [1] was determined as 22 nM; in experiment [4] it was 23 µM. As for `CN[C@@H](C)C/C=C/c1cnc(Cl)c(O[C@@H]2CCN(C(=O)C(C)C)C2)c1`, the inhibition constant Ki in experiment [1] stood at 1.5 nM; in experiment [4], 36 µM. As for `CN[C@@H](C)C/C=C/c1cnc(Cl)c(O[C@@H]2CCN(C(=O)C3CCC3)C2)c1`, the values for the Ki in experiment [1] and in experiment [4] were 1.5 nM and 45 µM, respectively. In the same order, the values of `CN[C@@H](C)C/C=C/c1cnc(Cl)c(O[C@@H]2CCN(C(=O)C3CCCC3)C2)c1` are 2.9 nM and 6.1 µM. For `CN[C@@H](C)C/C=C/c1cnc(Cl)c(O[C@@H]2CCN(C(=O)CC(C)(C)C)C2)c1` the same measures were 16 nM and 6.5 µM. As for `CN[C@@H](C)C/C=C/c1cnc(Cl)c(O[C@@H]2CCN(C(=O)CC3CCCC3)C2)c1`, the inhibitory constant (Ki) in experiment [1] was 7.5 nM; in experiment [4], 30 µM.
